Results from patent publication US11485744B2, “High penetration prodrug compositions of antimicrobials and antimicrobial-related compounds” (priority 2009, dated 2022).

Assay: In vitro penetration across isolated human skin in modified Franz cells
Conditions: human, 10 %, pH 7.4
Procedure: Penetration rates of HPPs and their parent drugs through human skin were measured in vitro by modified Franz cells. A Franz cell had two chambers, the top sample chamber and the bottom receiving chamber. The human skin tissue (360-400 μm thick) that separated the top and the receiving chambers was isolated from the anterior or posterior thigh areas.
A test compound (2 mL, 10% in 0.2 M phosphate buffer, pH 7.4) was added to the sample chamber of a Franz cell. The receiving chamber contained 10 ml of 0.2 M phosphate buffer which was stirred at 600 rpm. The amount of the tested compound penetrating the skin was determined by high-performance liquid chromatography (HPLC) method.

Compound | In vitro Penetration Rate (apparent flux), Parent compounds [mg/cm^2/h]
CC1(C)S[C@@H]2[C@H](NC(=O)[C@H](NC(=O)N3CCNC3=O)c3ccccc3)C(=O)N2[C@H]1C(=O)O [Azlocillin, reference compound] | <0.001
N[C@@H](C(=O)N[C@@H]1C(=O)N2C(C(=O)O)=C(Cl)CS[C@H]12)c1ccccc1 [Cefaclor, reference compound] | <0.016
C=CC1=C(C(=O)O)N2C(=O)[C@@H](NC(=O)/C(=N\OCC(=O)O)c3csc(N)n3)[C@H]2SC1 [Cefixime, reference compound] | <0.010
CCN1CCN(C(=O)N[C@@H](C(=O)N[C@@H]2C(=O)N3C(C(=O)O)=C(CSc4nnnn4C)CS[C@H]23)c2ccc(O)cc2)C(=O)C1=O [Cefoperazone, reference compound] | <0.015
NCc1ccccc1CC(=O)N[C@@H]1C(=O)N2C(C(=O)O)=C(CSc3nnnn3CC(=O)O)CS[C@H]12 [Ceforanide, reference compound] | <0.001
COCC1=C(C(=O)OC(C)OC(=O)OC(C)C)N2C(=O)[C@@H](NC(=O)/C(=N\OC)c3csc(N)n3)[C@H]2SC1 (stereo partly drawn) [Cefpodoxime proxetil, reference compound] | <0.001
CO/N=C(\C(=O)N[C@@H]1C(=O)N2C(C(=O)O)=C(COC(N)=O)CS[C@H]12)c1ccco1 [Cefuroxime, reference compound] | <0.001
CC(=O)OCC1=C(C(=O)O)N2C(=O)[C@@H](NC(=O)Cc3cccs3)[C@H]2SC1 [Cephalothin, reference compound] | <0.001

Same assay, conditions: pH 7.4

Compound | In vitro Penetration Rate (apparent flux), HPPs [mg/cm^2/h]
CCCN(CCC)CCOC(=O)C1N2C(=O)C(NC(=O)c3c(OC)cccc3OC)C2SC1(C)C.Cl (stereo not drawn) [6-(2,6-dimethoxybenzamido)penicillinic acid 2-dipropylaminoethyl ester hydrochloride] | 0.52 ± 0.07
Cc1onc(-c2c(Cl)cccc2Cl)c1C(=O)NC1C(=O)N2C1SC(C)(C)C2C(=O)OCCN1CCCCC1.Cl (stereo not drawn) [6-[3-(2,6-dichlorophenyl)-5-methyl-4-isoxazolecarboxamido]penicillinic acid 1-piperidineethyl ester hydrochloride] | 0.58 ± 0.05
Cc1onc(-c2ccccc2Cl)c1C(=O)NC1C(=O)N2C1SC(C)(C)C2C(=O)OCCC1CCCNC1.Cl (stereo not drawn) [6-[3-(o-chlorophenyl)-5-methyl-4-isoxazolecarboxamido]penicillinic acid 3-piperidineethyl ester hydrochloride] | 0.85 ± 0.05
CCOC(=O)C1N2C(=O)C(NC(=O)[C@H](N)c3ccccc3)C2SC1(C)C.Cl (stereo partly drawn) [6-[D(−)-α-aminophenylacetamidopenicillinic acid ethyl ester hydrochloride] | 0.82 ± 0.06
CC1(C)SC2C(NC(=O)C(NC(=O)N3CCN(S(C)(=O)=O)C3=O)c3ccccc3)C(=O)N2C1C(=O)OCCN1CCCC1.Cl (stereo not drawn) [6R-[2-[3-(methylsulfonyl)-2-oxo-1-imidazolidinecarboxamido]-2-phenylacetamido]penicillinic acid 1-pyrrolidineethyl ester hydrochloride] | 0.79 ± 0.07
C=CCSCC(=O)NC1C(=O)N2C1SC(C)(C)C2C(=O)OCCN(C)C.Cl (stereo not drawn) [Allylmercaptomethylpenicillinic acid 2-dimethylaminoethyl ester hydrochloride] | 0.65 ± 0.05
CC1(C)SC2C(NC(=O)[C@H](NC(=O)N3CCNC3=O)c3ccccc3)C(=O)N2C1C(=O)OCC1CCCN1.Cl (stereo partly drawn) [D-α-[(imidazolidin-2-on-1-yl)carbonylamino]benzylpenicillin 2-pyrrolidinemethyl ester hydrochloride] | 0.72 ± 0.05
